Data published in patent publication US11759462B2, “Spirocyclic compounds as tryptophan hydroxylase inhibitors” (priority 2013, dated 2023).

The compounds below were run against T1, Recombinant human TPH1 (MBP tagged) (Homo sapiens, UniProt P17752) (assay: TPH1 in vitro inhibition assay (kinetic fluorescence)). Details: TPH1 Range (TPH1 inhibition IC50).
T1 construct: cloning full length human TPH1 cDNA in to a bacterial pMAL-c5E expression vector; made in house; host or cells: E. coli BL21 (DE3)
T1 sequence (P17752 1-444): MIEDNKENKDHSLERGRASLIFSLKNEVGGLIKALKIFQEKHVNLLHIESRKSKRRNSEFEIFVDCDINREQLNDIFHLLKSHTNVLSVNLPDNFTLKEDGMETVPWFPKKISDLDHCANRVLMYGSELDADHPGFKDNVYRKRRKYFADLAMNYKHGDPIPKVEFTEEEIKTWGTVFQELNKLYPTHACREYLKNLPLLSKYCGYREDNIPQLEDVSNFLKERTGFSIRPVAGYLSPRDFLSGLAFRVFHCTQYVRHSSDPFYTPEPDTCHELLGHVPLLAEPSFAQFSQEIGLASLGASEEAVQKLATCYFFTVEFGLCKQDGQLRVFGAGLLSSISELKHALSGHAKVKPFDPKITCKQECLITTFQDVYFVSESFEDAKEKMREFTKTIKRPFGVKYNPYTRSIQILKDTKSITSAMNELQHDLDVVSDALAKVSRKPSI
Format: biochemical
In short: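 Final mix: 15 nM MBP-TPH1, 30 μM Trp, 36 μM 6-methyltetrahydropterin, 25 μM ferrous ammonium sulfate, 50 mM MES pH 7.1, 1% DMSO, room temperature.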

| Compound | IC50 [nM] |
| --- | --- |
| Nc1nc(O[C@H](c2ccc(-c3ccc4c(c3)CCC(=O)N4)cc2)C(F)(F)F)cc(N2CCC3(CC2)CN[C@H](C(=O)O)C3)n1 [Example 55v, (S)-8-(2-amino-6-((R)-2,2,2-trifluoro-1-(4-(2-oxo-1,2,3,4-tetrahydroquinolin-6-yl)phenyl)ethoxy)pyrimidin-4-yl)-2,8-diazaspiro[4.5]decane-3-carboxylic acid] | < 50 |
| Nc1nc(O[C@H](c2ccc(-c3ccc4[nH]ncc4c3)cc2)C(F)(F)F)cc(N2CCC3(CC2)CN[C@H](C(=O)O)C3)n1 [Example 55w, (S)-8-(6-((R)-1-(4-(1H-indazol-5-yl)phenyl)-2,2,2-trifluoroethoxy)-2-aminopyrimidin-4-yl)-2,8-diazaspiro[4.5]decane-3-carboxylic acid] | < 50 |

Same assay, conditions: read-out: TPH1 Range (TPH1 inhibition IC50)

| Compound | IC50 [nM] |
| --- | --- |
| COc1cc(-c2ccc([C@@H](Oc3cc(N4CCC5(CC4)CN[C@H](C(=O)O)C5)nc(N)n3)C(F)(F)F)cc2)ccc1C [Example 55n, (S)-8-(2-amino-6-((R)-2,2,2-trifluoro-1-(3′-methoxy-4′-methyl-[1,1′-biphenyl]-4-yl)ethoxy)pyrimidin-4-yl)-2,8-diazaspiro[4.5]decane-3-carboxylic acid] | 300 to 3000 |
| Nc1nc(O[C@H](c2ccc(-c3ccc4[nH]c(=O)ccc4c3)cc2)C(F)(F)F)cc(N2CCC3(CC2)CN[C@H](C(=O)O)C3)n1 [Example 55t, (S)-8-(2-amino-6-((R)-2,2,2-trifluoro-1-(4-(2-oxo-1,2-dihydroquinolin-6-yl)phenyl)ethoxy)pyrimidin-4-yl)-2,8-diazaspiro[4.5]decane-3-carboxylic acid] | 50 to 300 |
| Cn1c(=O)ccc2cc(-c3ccc([C@@H](Oc4cc(N5CCC6(CC5)CN[C@H](C(=O)O)C6)nc(N)n4)C(F)(F)F)cc3)ccc21 [Example 55u, (S)-8-(2-amino-6-((R)-2,2,2-trifluoro-1-(4-(1-methyl-2-oxo-1,2-dihydroquinolin-6-yl)phenyl)ethoxy)pyrimidin-4-yl)-2,8-diazaspiro[4.5]decane-3-carboxylic acid] | 50 to 300 |
| Cc1nn(C)c2ccc(-c3ccc([C@@H](Oc4cc(N5CCC6(CC5)CN[C@H](C(=O)O)C6)nc(N)n4)C(F)(F)F)cc3)cc12 [Example 55x, (S)-8-(2-amino-6-((R)-1-(4-(1,3-dimethyl-1H-indazol-5-yl)phenyl)-2,2,2-trifluoroethoxy)pyrimidin-4-yl)-2,8-diazaspiro[4.5]decane-3-carboxylic acid] | 50 to 300 |
| Cc1cn(C)c2ccc(-c3ccc([C@@H](Oc4cc(N5CCC6(CC5)CN[C@H](C(=O)O)C6)nc(N)n4)C(F)(F)F)cc3)cc12 [Example 55y, (S)-8-(2-amino-6-((R)-1-(4-(1,3-dimethyl-1H-indol-5-yl)phenyl)-2,2,2-trifluoroethoxy)pyrimidin-4-yl)-2,8-diazaspiro[4.5]decane-3-carboxylic acid] | 50 to 300 |
| COc1cc(-c2ccc([C@@H](Oc3cc(N4CCC5(CC4)CN[C@H](C(=O)O)C5)nc(N)n3)C(F)(F)F)cc2)cc(C(F)(F)F)c1 [Example 55z, (S)-8-(2-amino-6-((R)-2,2,2-trifluoro-1-(3′-methoxy-5′-(trifluoromethyl)-[1,1′-biphenyl]-4-yl)ethoxy)pyrimidin-4-yl)-2,8-diazaspiro[4.5]decane-3-carboxylic acid] | 50 to 300 |
| Nc1nc(O[C@H](c2ccc(-c3ccc4c(c3)NCCN4)cc2)C(F)(F)F)cc(N2CCC3(CC2)CN[C@H](C(=O)O)C3)n1 [Example 56, (S)-8-(2-amino-6-((R)-2,2,2-trifluoro-1-(4-(1,2,3,4-tetrahydroquinoxalin-6-yl)phenyl)ethoxy)pyrimidin-4-yl)-2,8-diazaspiro[4.5]decane-3-carboxylic acid] | 50 to 300 |
| Nc1nc(O[C@H](c2ccc3c(c2)CNCN3)C(F)(F)F)cc(N2CCC3(CC2)CN[C@H](C(=O)O)C3)n1 [Example 58, (S)-8-(2-amino-6-((R)-2,2,2-trifluoro-1-(1,2,3,4-tetrahydroquinazolin-6-yl)ethoxy)pyrimidin-4-yl)-2,8-diazaspiro[4.5]decane-3-carboxylic acid] | 50 to 300 |
| Nc1nc(O[C@H](c2ccc(Br)cc2)C(F)(F)F)cc(N2CCC3(CC2)CN[C@H](C(=O)O)C3)n1 [Example 59, (S)-8-(2-amino-6-((R)-1-(4-bromophenyl)-2,2,2-trifluoroethoxy)pyrimidin-4-yl)-2,8-diazaspiro[4.5]decane-3-carboxylic acid] | 300 to 3000 |
| Nc1nc(O[C@H](c2ccc3ccccc3c2)C(F)(F)F)cc(N2CCC3(CC2)CN[C@H](C(=O)O)C3)n1 [Example 59b, (S)-8-(2-amino-6-((R)-2,2,2-trifluoro-1-(naphthalen-2-yl)ethoxy)pyrimidin-4-yl)-2,8-diazaspiro[4.5]decane-3-carboxylic acid] | 300 to 3000 |
| Cc1cc(-c2ccc3ncc(F)cc3c2)ccc1[C@@H](Oc1cc(N2CCC3(CC2)CN[C@H](C(=O)O)C3)nc(N)n1)C(F)(F)F [Example 59c, (S)-8-(2-amino-6-((R)-2,2,2-trifluoro-1-(4-(3-fluoroquinolin-6-yl)-2-methylphenyl)ethoxy)pyrimidin-4-yl)-2,8-diazaspiro[4.5]decane-3-carboxylic acid] | 50 to 300 |
| CCc1cc(-c2ccc3ncc(F)cc3c2)ccc1[C@@H](Oc1cc(N2CCC3(CC2)CN[C@H](C(=O)O)C3)nc(N)n1)C(F)(F)F [Example 59d, (S)-8-(2-amino-6-((R)-1-(2-ethyl-4-(3-fluoroquinolin-6-yl)phenyl)-2,2,2-trifluoroethoxy)pyrimidin-4-yl)-2,8-diazaspiro[4.5]decane-3-carboxylic acid] | 50 to 300 |
| CS(=O)(=O)c1cccc(-c2cc(Cl)ccc2COc2cc(N3CCC4(CC3)CN[C@H](C(=O)O)C4)nc(N)n2)c1 [Example 62, (S)-8-(2-amino-6-((5-chloro-3′-(methylsulfonyl)-[1,1′-biphenyl]-2-yl)methoxy)pyrimidin-4-yl)-2,8-diazaspiro[4.5]decane-3-carboxylic acid] | 50 to 300 |
| (S)-8-(2-Amino-6-((4-(3-methyl-H-indazol-6-yl)phenoxy)methyl)pyrimidin-4-yl)-2,8-diazaspiro[4.5]decane-3-carboxylic acid [Example 61] | 50 to 300 |
| (S)-8-(2-amino-6-((R)-1-(3,4-dihydroquinazolin-6-yl)-2,2,2-trifluoroethoxy)pyrimidin-4-yl)-2,8-diazaspiro[4.5]decane-3-carboxylic acid [Example 57] | 50 to 300 |

Second part, the compound after the results:

| IC50 [nM] | Compound |
| --- | --- |
| 50 to 300 | Nc1nc(O[C@H](c2ccc(-c3ccc4ncnn4c3)cc2)C(F)(F)F)cc(N2CCC3(CC2)CN[C@H](C(=O)O)C3)n1 [Example 55l, (S)-8-(6-((R)-1-(4-([1,2,4]triazolo[1,5-a]pyridin-6-yl)phenyl)-2,2,2-trifluoroethoxy)-2-aminopyrimidin-4-yl)-2,8-diazaspiro[4.5]decane-3-carboxylic acid] |
| < 50 | Nc1nc(O[C@H](c2ccc(-c3ccc4ccccc4c3)cc2)C(F)(F)F)cc(N2CCC3(CC2)CN[C@H](C(=O)O)C3)n1 [Example 55m, (S)-8-(2-amino-6-((R)-2,2,2-trifluoro-1-(4-(naphthalen-2-yl)phenyl)ethoxy)pyrimidin-4-yl)-2,8-diazaspiro[4.5]decane-3-carboxylic acid] |
| 50 to 300 | COc1cc(C)cc(-c2ccc([C@@H](Oc3cc(N4CCC5(CC4)CN[C@H](C(=O)O)C5)nc(N)n3)C(F)(F)F)cc2)c1 [Example 55o, (S)-8-(2-amino-6-((R)-2,2,2-trifluoro-1-(3′-methoxy-5′-methyl-[1,1′-biphenyl]-4-yl)ethoxy)pyrimidin-4-yl)-2,8-diazaspiro[4.5]decane-3-carboxylic acid] |
| 50 to 300 | COc1ccc(C)c(-c2ccc([C@@H](Oc3cc(N4CCC5(CC4)CN[C@H](C(=O)O)C5)nc(N)n3)C(F)(F)F)cc2)c1 [Example 55p, (S)-8-(2-amino-6-((R)-2,2,2-trifluoro-1-(5′-methoxy-2′-methyl-[1,1′-biphenyl]-4-yl)ethoxy)pyrimidin-4-yl)-2,8-diazaspiro[4.5]decane-3-carboxylic acid] |
| < 50 | COc1ccc(-c2ccc([C@@H](Oc3cc(N4CCC5(CC4)CN[C@H](C(=O)O)C5)nc(N)n3)C(F)(F)F)cc2)cc1OC [Example 55q, (S)-8-(2-amino-6-((R)-1-(3′,4′-dimethoxy-[1,1′-biphenyl]-4-yl)-2,2,2-trifluoroethoxy)pyrimidin-4-yl)-2,8-diazaspiro[4.5]decane-3-carboxylic acid] |
| 50 to 300 | COc1cc(-c2ccc([C@@H](Oc3cc(N4CCC5(CC4)CN[C@H](C(=O)O)C5)nc(N)n3)C(F)(F)F)cc2)ccc1C(=O)N1CCCC1 [Example 55r, (S)-8-(2-amino-6-((R)-2,2,2-trifluoro-1-(3′-methoxy-4′-(pyrrolidine-1-carbonyl)-[1,1′-biphenyl]-4-yl)ethoxy)pyrimidin-4-yl)-2,8-diazaspiro[4.5]decane-3-carboxylic acid] |
| < 50 | Nc1nc(O[C@H](c2ccc(-c3ccc4c(c3)COC4=O)cc2)C(F)(F)F)cc(N2CCC3(CC2)CN[C@H](C(=O)O)C3)n1 [Example 55s, (S)-8-(2-amino-6-((R)-2,2,2-trifluoro-1-(4-(1-oxo-1,3-dihydroisobenzofuran-5-yl)phenyl)ethoxy)pyrimidin-4-yl)-2,8-diazaspiro[4.5]decane-3-carboxylic acid] |
